Laboratory results as given in patent US9937194B1, “Compounds and methods for treating inflammatory diseases” (priority 2009, dated 2018).
In brackets after ≈: the same amount, converted by molar mass. Several values for one entry are separate records, joined by “and”; a condition that tells them apart may be missing. Equal entries are not always repeated. Where two headings read alike, the source gives them in different places.

Key:
[1] = tested on: HDAC activity; test: H2O2-induced reduction of HDAC activity in PMA-differentiated U937 cells; format: cell-based, human; conditions: for restoration of H2O2-reduced HDAC activity (%): test concentration not given, bracketed second value not explained
In short: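 U937 cells PMA-differentiated for 3 days, pretreated with compound for 20 min, then exposed to 200 μM H2O2 for 4 h with Fluor de Lys substrate present. Whole-cell HDAC activity measured fluorimetrically. Data expressed as fold change versus H2O2-only control, mean of four experiments ± SEM.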

[2] = tested on: IL-8; test: LPS-induced IL-8 release in PMA-differentiated U937 cells (ELISA); format: cell-based, human; conditions: for IL-8 inhibition (%): test concentration not given
In short: (§1)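 PMA-differentiated U937 macrophage-like cells were pretreated with compound for 1 hr, then stimulated with LPS (100 ng/ml) for 4 hrs. Released IL-8 and TNFα were quantified by sandwich ELISA. Values are means of three experiments ± SEM.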

[3] = tested on: TNFα; test: LPS-induced TNFα release in PMA-differentiated U937 cells (ELISA); format: cell-based, human; conditions: for TNFα inhibition (%): test concentration not given
In short: as §1

[4] = tested on: MMP9; test: PMA-induced MMP9 expression in U937 cells (gelatin zymography); format: cell-based, human; conditions: test concentration not given; bracketed second value not explained
[5] = format: cell-based
[6] = tested on: K. pneumonia 13883; test: MIC; format: cell-based; conditions: in µg/mL
[7] = tested on: E. coli ATCC 25922; test: MIC; format: cell-based; conditions: in µg/mL
[8] = tested on: S. typhimurium ATCC 14028; test: MIC; format: cell-based; conditions: in µg/mL
[9] = tested on: H. influenzae ATCC 49247; test: MIC; format: cell-based
[10] = tested on: S. pneumoniae ATCC 49619; test: MIC; format: cell-based
[11] = tested on: S. aureus ATCC 29213 (MSSA) MLS-S; test: MIC; format: cell-based
[12] = tested on: S. pyogenes ATCC 19615; test: MIC; format: cell-based; conditions: in µg/mL
[13] = tested on: P. aeruginosa ATCC 27853; test: MIC; format: cell-based
[14] = tested on: N. gonorrhoeae ATCC 49226; test: MIC; format: cell-based; parameters: unit not given beside the values
[15] = tested on: E. faecalis ATCC 29212; test: MIC; format: cell-based
[16] = tested on: S. pneumoniae 163 (MefA); test: MIC; format: cell-based; conditions: in µg/mL
[17] = tested on: S. pneumoniae 303 (ErmB); test: MIC; format: cell-based
[18] = tested on: S. pneumoniae 3773 (ErmB); test: MIC; format: cell-based
[19] = tested on: S. pyogenes ATCC 1721; test: MIC; format: cell-based
[20] = tested on: Akt; test: H2O2-induced phosphorylation of Akt in PMA-differentiated U937 cells (western blot); format: cell-based, human; conditions: PMA-differentiated U937; H2O2 1 mM 30 min
Description: Cell Lysis and Western Blotting. Whole cell protein extracts are prepared using modified RIPA buffer (50 mM Tris HCL pH 7.4, 0.5% NP-40, 0.25% Na-deoxycholate, 150 mM NaCl with freshly added complete protease (Roche). Phosphatase inhibitor (Active Motif) is also added when required. Protein concentration is determined using the Bio-Rad Protein Assay (Bio-Rad). Proteins are separated by SDS-PAGE under denaturing conditions, and electrotransferred to a nitrocellulose membrane (Amersham Biosciences, Amersham, U.K.) (Western blotting). The membranes are blocked in TBS containing 0.05% Tween 20 and 5% non-fat dried milk, and then incubated with anti-pAkt or Akt antibody followed by an horse radish peroxidase-conjugated secondary antibody (Dako UK Ltd., Ely, UK). Bound antibodies are visualized by ECL Plus (GE Healthcare UK Ltd., Little Chalfont, UK). The band density is calculated by densitometry (UVP Bioimaging Systems, Cambridge, UK) using Labworks software (Ultra-Violet Products, Cambridge, UK).
Effects of compounds on H2O2-induced phosphorylation of Akt in PMA-differentiated U937 cells. PMA-differentiated macrophage-like cells are pretreated with compounds described herein for 20 min. After H2O2 (1 mM) stimulation for 30 min, cells are lysed. Phosphorylation levels of Akt are measured by western blot. Data are calculated relative to total protein, and expressed as fold changes against positive control treated with H2O2 only. Values represent means of three or four experiments±SEM.

[21] = tested on: U937 cells; test: H2O2-induced steroid insensitivity in U937 cells (dexamethasone IC50 on TNFα-induced IL-8); format: cell-based, human; conditions: highest concentration tested (100 μM); H2O2 200 μM
Description: Cytokine ELISA. LPS-induced IL-8, TNFα concentrations and TNFα-induced IL-8 concentrations are determined by sandwich ELISA according to the manufacturer's instructions (R&D Systems Europe). IC50 values for dexamethasone on IL-8 production are calculated using the computer program Prism 4.0 (GraphPad Software Inc., San Diego, Calif.) as a marker for steroid sensitivity.
Restoration of steroid sensitivity. U937 cells: U937 are treated with oxidative stress (H2O2, 200 μM or 0.15 dilution CSM (cigarette smoke conditioned medium)) and 4 hours later, stimulated with TNFα (10 ng/ml) in the presence of dexamethasone (10^−11-10^−6M). Supernatant and cells are collected 24 hrs after stimulation and IL-8 is measured by conventional ELISA. As the index of corticosteroid sensitivity, IC50 of dexamethasone is calculated. Test compounds are treated 20 min before oxidative stress treatment.
Effects of compounds on H2O2-induced steroid insensitivity in U937 cells. Cells stimulated with H2O2 (200 μM) overnight are incubated with compounds described herein for 30 min under H2O2 (200 μM) exposure. The cells are treated with dexamethasone (10^−11 to 10^−6 M) for 20 min, followed by the TNFα stimulation overnight. TNFα-induced IL-8 release is evaluated by ELISA and IC50 values for dexamethasone on IL-8 production are calculated using Prism. Data are expressed as fold changes against positive control treated with H2O2 only. Values represent means of four experiments±SEM. H2O2 exposure reduces dexamethasone sensitivity by approximately 4 fold based on calculated IC50 values of TNFα-induced IL-8 production.

[22] = tested on: A/J mice exposed to LPS; test: Anti-inflammatory activity in vivo: A/J mice exposed to LPS intranasally; conditions: intranasal, 1 hr before LPS challenge

SMILES | restoration of H2O2-reduced HDAC activity (%) [1] | IL-8 inhibition (%) [2] | TNFα inhibition (%) [3] | MMP9 inhibition (%) [4] | Cell Toxicity (% cell death) ([5]; test concentration not given) | MIC K. pneumonia 13883 [6] | MIC E. coli ATCC 25922 [7] | MIC S. typhimurium ATCC 14028 [8] | MIC H. influenzae ATCC 49247 [9] | MIC S. pneumoniae ATCC 49619 [10] | MIC S. aureus ATCC 29213 (MSSA) MLS-S [11] | MIC P. aeruginosa ATCC 27853 [13] | MIC E. faecalis ATCC 29212 [15] | MIC S. pneumoniae 163 (MefA) [16] | MIC S. pneumoniae 3773 (ErmB) [18] | MIC S. pyogenes ATCC 1721 [19] | other results
CCC1OC(=O)C(C)C(OC2OCC(O)C(N(C)C)C2O)C(C)C(OC2OC(C)CC(N(C)C)C2O)C(C)(O)CC(C)CN(C(C)=O)C(C)C2OC(=O)OC12C (mixture of isomers) [Example 40] | 26% | 93% | 68% | 60 (38) % | 26% | >64 | >64 | >64 | > 64 µg/mL | 64 µg/mL | 16 µg/mL | > 64 µg/mL | 32 µg/mL | – | – | – | MIC S. pyogenes ATCC 19615 [12]: >64; MIC N. gonorrhoeae ATCC 49226 [14]: 8 and 16
CC[C@H]1OC(=O)[C@@](C)(F)C(=O)[C@H](C)[C@@H](O[C@@H]2O[C@H](C)[C@@H](OC(=O)Nc3ccccc3)[C@H](N(C)C)[C@H]2O)[C@@](C)(OC)C[C@@H](C)C(=O)[C@H](C)[C@H]2N(CCCCn3cc(-c4ccccn4)nn3)C(=O)O[C@]12C [Example 27] | 75% | −43% | 34% | 1% | −7% | – | – | – | > 64 µg/mL | 32 µg/mL (≈ 33.1 µM) | – | – | – | 8 | > 64 µg/mL | > 64 µg/mL | MIC S. pneumoniae 303 (ErmB) [17]: > 64 µg/mL
CC[C@H]1OC(=O)[C@H](C)C(=O)[C@H](C)[C@@H](O[C@@H]2O[C@H](COC(=O)c3ccccc3)[C@@H](N)[C@@H]2O)[C@@](C)(OC)C[C@@H](C)C(=O)[C@H](C)[C@H]2N(CCCCn3cc(-c4ccccn4)nn3)C(=O)O[C@]12C [Example 26] | 92% | −51% | −25% | 2% | −2% | – | – | – | > 64 µg/mL | 32 µg/mL (≈ 35.9 µM) | – | – | – | 64 | > 64 µg/mL | > 64 µg/mL | –
CCC1OC(=O)C(C)C(OC2OCC(O)C(NC)C2O)C(C)C(OC2OC(C)CC(N(C)C)C2O)C(C)(O)CC(C)CN(C(C)=O)C(C)C2OC(=O)OC12C (mixture of isomers) [Example 32] | 79 (65) % | 55% | 73% | 40 (49) % | 11% | >64 | >64 | >64 | – | 32 µg/mL | 32 µg/mL | > 64 µg/mL | 32 µg/mL | – | – | – | –
CC[C@H]1OC(=O)[C@H](C)[C@@H](O[C@H]2C[C@@](C)(OC)[C@@H](O)[C@H](C)O2)[C@H](C)[C@@H](O[C@@H]2O[C@H](C)C[C@H](N(C)C)[C@H]2O)[C@](C)(O)C[C@@H](C)CN(C)[C@H](C)[C@@H](O)[C@]1(C)O [AZI, azithromycin, reference compound] | 34% | 44% | 31% | 33 (25) % | – | – | – | – | – | – | – | – | – | – | – | – | restoration of HDAC activity compared with Example 33 ([1]; PMA-differentiated U937, H2O2 200 μM 4 hrs): only at much higher doses than Example 33; HDAC activity reached compared with untreated controls ([1]; PMA-differentiated U937, H2O2 200 μM, comparators at highest doses tested): only restore HDAC activity to levels comparable to untreated controls; inhibition of Akt phosphorylation compared with Example 33 [20]: only at much higher concentrations than Example 33; inhibition of LPS-induced IL-8 release compared with Example 33 ([2]; LPS 100 ng/ml 4 hrs): did not show any inhibition at any concentration tested; inhibition of LPS-induced TNFα release compared with Example 33 ([3]; LPS 100 ng/ml 4 hrs): did not show any inhibition at any concentration tested; restoration of dexamethasone sensitivity [21]: None of ERY, CLR, or AZI restored dexamethasone sensitivity; Cell Toxicity (% cell death) ([5]; human): −16%; anti-inflammatory action in LPS-exposed A/J mice [22]: have anti-inflammatory action
